Data on 12 molecules can be found in BindingDB's records for doi:10.1124/mol.64.4.841 (Pohang University of Science and Technology, 2003).

This experiment has as its target T1, fMet-Leu-Phe receptor (Homo sapiens, UniProt P21462).
T1 sequence (P21462 whole entry): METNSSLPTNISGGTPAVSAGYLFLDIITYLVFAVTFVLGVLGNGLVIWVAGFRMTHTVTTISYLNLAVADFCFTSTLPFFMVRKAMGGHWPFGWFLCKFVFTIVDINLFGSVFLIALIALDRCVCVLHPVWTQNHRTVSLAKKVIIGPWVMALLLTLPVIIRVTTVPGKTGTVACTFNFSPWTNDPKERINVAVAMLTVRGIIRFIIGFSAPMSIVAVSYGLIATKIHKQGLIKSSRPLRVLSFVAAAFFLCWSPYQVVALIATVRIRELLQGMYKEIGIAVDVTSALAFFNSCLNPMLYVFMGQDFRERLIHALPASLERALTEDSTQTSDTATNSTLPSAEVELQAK

Each structure is given as a SMILES string. Square brackets hold non-standard residues; d marks the D form. Peptide text beside a SMILES is read from it.

In turn, `CSCC[C@H](NC(=O)[C@H](CCC(=O)O)NC(=O)[C@H](CCCCN)NC(=O)[C@@H](N)Cc1c[nH]c2ccccc12)C(=O)N[C@H](C(=O)N[C@H](CCSC)C(N)=O)C(C)C` [WKEMVm-NH2] (H-WKEMV[dM]-NH2) showed a Ki of 1300 nM. The same measure for `CSCC[C@H](NC(=O)[C@H](Cc1ccc(O)cc1)NC(=O)[C@H](CC(=O)O)NC(=O)[C@@H](N)Cc1c[nH]c2ccccc12)C(=O)N[C@H](C(=O)N[C@H](CCSC)C(N)=O)C(C)C` [WDYMVm-NH2] (H-WDYMV[dM]-NH2): 99 nM; for `CSCC[C@H](NC(=O)[C@H](Cc1ccc(O)cc1)NC(=O)[C@H](CCCNC(=N)N)NC(=O)[C@@H](N)Cc1c[nH]c2ccccc12)C(=O)N[C@H](C(=O)N[C@H](CCSC)C(N)=O)C(C)C` [WRYMVm-NH2] (H-WRYMV[dM]-NH2): 55 nM; for `CSCC[C@H](NC(=O)[C@H](Cc1c[nH]c2ccccc12)NC(=O)[C@H](CCCCN)NC(=O)[C@@H](N)Cc1c[nH]c2ccccc12)C(=O)N[C@H](C(=O)N[C@H](CCSC)C(N)=O)C(C)C` [WKWMVm-NH2] (H-WKWMV[dM]-NH2): 19 nM. In turn, `CSCC[C@H](NC(=O)[C@H](Cc1ccccc1)NC(=O)[C@H](CCCCN)NC(=O)[C@@H](N)Cc1c[nH]c2ccccc12)C(=O)N[C@H](C(=O)N[C@H](CCSC)C(N)=O)C(C)C` [WKFMVm-NH2] (H-WKFMV[dM]-NH2) registered a Ki of 18 nM. `CSCC[C@H](NC(=O)[C@H](Cc1ccc(O)cc1)NC(=O)[C@H](CCCCN)NC(=O)[C@@H](N)Cc1c[nH]c2ccccc12)C(=O)N[C@@H](Cc1ccc(O)cc1)C(=O)N[C@H](CCSC)C(N)=O` [WKYMYm-NH2] (H-WKYMY[dM]-NH2) returned a Ki of 671 nM. `CSCC[C@H](NC(=O)[C@H](CC(=O)O)NC(=O)[C@H](CCCCN)NC(=O)[C@@H](N)Cc1c[nH]c2ccccc12)C(=O)N[C@H](C(=O)N[C@H](CCSC)C(N)=O)C(C)C` [WKDMVm-NH2] (H-WKDMV[dM]-NH2) had a Ki of 1300 nM.

On to `CSCC[C@H](NC(=O)[C@H](Cc1ccc(O)cc1)NC(=O)[C@H](CCC(=O)O)NC(=O)[C@@H](N)Cc1c[nH]c2ccccc12)C(=O)N[C@H](C(=O)N[C@H](CCSC)C(N)=O)C(C)C` [WEYMVm-NH2] (H-WEYMV[dM]-NH2), for which the affinity, expressed as Ki, was 323 nM. The molecule `CSCC[C@H](NC(=O)[C@H](Cc1c[nH]cn1)NC(=O)[C@H](CCCCN)NC(=O)[C@@H](N)Cc1c[nH]c2ccccc12)C(=O)N[C@H](C(=O)N[C@H](CCSC)C(N)=O)C(C)C` [WKHMVm-NH2] (H-WKHMV[dM]-NH2) gave a Ki of 282 nM. For the molecule `CSCC[C@H](NC(=O)[C@H](Cc1ccc(O)cc1)NC(=O)[C@H](Cc1c[nH]cn1)NC(=O)[C@@H](N)Cc1c[nH]c2ccccc12)C(=O)N[C@H](C(=O)N[C@H](CCSC)C(N)=O)C(C)C` [WHYMVm-NH2] (H-WHYMV[dM]-NH2), the Ki was found to be 32 nM. This Ki lies about 8.8-fold lower than the previous one. The same measure for `CSCC[C@H](NC(=O)[C@H](Cc1ccc(O)cc1)NC(=O)[C@H](CCCCN)NC(=O)[C@@H](N)Cc1c[nH]c2ccccc12)C(=O)N[C@@H](Cc1ccccc1)C(=O)N[C@H](CCSC)C(N)=O` [WKYM(F/W)m-NH2]: 57 nM; for `CSCC[C@H](NC(=O)[C@@H](N)Cc1ccc(O)cc1)C(=O)N[C@H](C(=O)N[C@H](CCSC)C(N)=O)C(C)C` [YMVm-NH2] (H-YMV[dM]-NH2): 567 nM.
